According to patent US20130035326A1 (AMBIT BIOSCIENCES CORPORATION, priority 2009, published 2013):

Legend:
[1] = biological target: T1, KIT kinase (Homo sapiens, UniProt P10721); assay: Competition binding assay, KIT Kd
T1 construct: made in house; host or cells: T7 phage display or HEK-293 cells
Method in brief: (§1)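 In this bead-based competition format, test compound (eleven concentrations, threefold steps) was incubated with kinase and immobilized affinity ligand for 1 hour at room temperature. Kinase retained on beads was released with non-biotinylated ligand and measured by quantitative PCR to give Kd.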

[2] = biological target: T2, CSF-1R kinase (Homo sapiens, UniProt P07333); assay: Competition binding assay, CSF-1R Kd
T2 construct: made in house; host or cells: T7 phage display or HEK-293 cells
T2 sequence (P07333 20-972): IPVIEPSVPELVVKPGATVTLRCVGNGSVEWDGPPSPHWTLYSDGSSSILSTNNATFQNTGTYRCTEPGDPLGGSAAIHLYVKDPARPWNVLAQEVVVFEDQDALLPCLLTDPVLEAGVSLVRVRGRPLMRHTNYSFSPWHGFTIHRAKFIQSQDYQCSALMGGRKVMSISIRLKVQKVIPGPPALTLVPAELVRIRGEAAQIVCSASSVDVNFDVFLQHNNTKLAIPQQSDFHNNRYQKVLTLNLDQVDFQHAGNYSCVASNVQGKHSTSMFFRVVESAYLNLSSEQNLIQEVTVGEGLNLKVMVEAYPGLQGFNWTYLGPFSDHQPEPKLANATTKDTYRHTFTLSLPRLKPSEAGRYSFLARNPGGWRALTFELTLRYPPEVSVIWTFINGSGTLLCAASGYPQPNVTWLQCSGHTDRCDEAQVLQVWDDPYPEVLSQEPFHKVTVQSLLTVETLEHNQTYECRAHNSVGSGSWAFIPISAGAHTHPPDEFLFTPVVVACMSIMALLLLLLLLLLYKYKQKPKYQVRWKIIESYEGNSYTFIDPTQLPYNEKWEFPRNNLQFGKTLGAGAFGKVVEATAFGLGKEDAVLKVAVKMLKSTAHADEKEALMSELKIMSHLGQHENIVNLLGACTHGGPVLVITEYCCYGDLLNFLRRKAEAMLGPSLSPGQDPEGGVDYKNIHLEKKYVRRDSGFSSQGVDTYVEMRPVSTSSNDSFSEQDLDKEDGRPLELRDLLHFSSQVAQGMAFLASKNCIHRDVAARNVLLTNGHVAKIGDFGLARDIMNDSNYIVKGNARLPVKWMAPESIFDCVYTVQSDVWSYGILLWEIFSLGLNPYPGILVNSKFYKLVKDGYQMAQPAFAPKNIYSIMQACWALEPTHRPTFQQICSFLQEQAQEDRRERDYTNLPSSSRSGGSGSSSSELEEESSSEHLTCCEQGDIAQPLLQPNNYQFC
Method in brief: as §1

[3] = biological target: T3, FLT3 kinase (Homo sapiens, UniProt P36888); assay: Competition binding assay, FLT3 Kd
T3 construct: made in house; host or cells: T7 phage display or HEK-293 cells
T3 sequence (P36888 27-993): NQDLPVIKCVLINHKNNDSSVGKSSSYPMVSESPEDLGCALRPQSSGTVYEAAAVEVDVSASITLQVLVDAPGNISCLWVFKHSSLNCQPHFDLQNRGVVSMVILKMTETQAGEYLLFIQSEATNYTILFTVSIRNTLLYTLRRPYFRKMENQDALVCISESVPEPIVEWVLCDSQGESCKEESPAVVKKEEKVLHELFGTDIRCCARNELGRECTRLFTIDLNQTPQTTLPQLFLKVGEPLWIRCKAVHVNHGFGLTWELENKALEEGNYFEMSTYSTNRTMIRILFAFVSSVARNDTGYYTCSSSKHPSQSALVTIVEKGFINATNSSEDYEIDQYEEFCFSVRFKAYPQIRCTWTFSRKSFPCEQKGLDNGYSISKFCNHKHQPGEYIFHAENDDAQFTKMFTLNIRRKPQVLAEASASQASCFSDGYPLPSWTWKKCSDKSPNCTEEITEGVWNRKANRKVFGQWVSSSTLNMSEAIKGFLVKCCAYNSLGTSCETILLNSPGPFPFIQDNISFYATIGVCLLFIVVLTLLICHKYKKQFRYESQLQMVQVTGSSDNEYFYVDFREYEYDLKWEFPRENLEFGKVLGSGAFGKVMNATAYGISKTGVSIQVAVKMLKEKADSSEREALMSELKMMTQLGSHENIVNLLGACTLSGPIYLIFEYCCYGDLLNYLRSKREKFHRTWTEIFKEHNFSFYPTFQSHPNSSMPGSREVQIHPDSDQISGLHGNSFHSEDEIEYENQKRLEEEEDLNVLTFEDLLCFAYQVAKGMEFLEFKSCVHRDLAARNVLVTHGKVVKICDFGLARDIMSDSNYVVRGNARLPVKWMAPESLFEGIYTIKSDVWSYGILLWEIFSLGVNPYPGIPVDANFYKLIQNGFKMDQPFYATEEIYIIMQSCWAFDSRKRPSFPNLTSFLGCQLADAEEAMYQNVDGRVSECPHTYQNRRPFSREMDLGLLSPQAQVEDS
Method in brief: as §1

[4] = tested on: MV4-11 cells; assay: MV4-11 cell proliferation assay (Alamar Blue); assay type: cell-based; settings: Homo sapiens, MV4-11, 72 h, 3 days incubation
Method in brief: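 Viability readout: Alamar Blue fluorescence, ex 560/em 590 nm, 3 h after reagent addition, after 3-day exposure of 64,000 MV4-11 cells per well to a 9-point half-log compound series in 0.5% FBS Iscove's. IC50 from duplicate averages, as 50% proliferation inhibition relative to negative control.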

[5] = biological target: kinase panel containing either 359 or 386 distinct kinases; assay: Selectivity score S10 from competition binding against a panel of kinases; settings: compounds at 10 μM; panel of 386 distinct kinases
Method in brief: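 Compounds were tested at 10 μM in competition binding against T7 phage-fused or HEK-293-expressed DNA-tagged kinases with immobilized affinity ligands, 1 h at room temperature. Bound kinase was quantified by qPCR as percent of DMSO control; S10 is the fraction of distinct kinases (mutants excluded) with POC below 10.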

T1 sequence (P10721 26-976): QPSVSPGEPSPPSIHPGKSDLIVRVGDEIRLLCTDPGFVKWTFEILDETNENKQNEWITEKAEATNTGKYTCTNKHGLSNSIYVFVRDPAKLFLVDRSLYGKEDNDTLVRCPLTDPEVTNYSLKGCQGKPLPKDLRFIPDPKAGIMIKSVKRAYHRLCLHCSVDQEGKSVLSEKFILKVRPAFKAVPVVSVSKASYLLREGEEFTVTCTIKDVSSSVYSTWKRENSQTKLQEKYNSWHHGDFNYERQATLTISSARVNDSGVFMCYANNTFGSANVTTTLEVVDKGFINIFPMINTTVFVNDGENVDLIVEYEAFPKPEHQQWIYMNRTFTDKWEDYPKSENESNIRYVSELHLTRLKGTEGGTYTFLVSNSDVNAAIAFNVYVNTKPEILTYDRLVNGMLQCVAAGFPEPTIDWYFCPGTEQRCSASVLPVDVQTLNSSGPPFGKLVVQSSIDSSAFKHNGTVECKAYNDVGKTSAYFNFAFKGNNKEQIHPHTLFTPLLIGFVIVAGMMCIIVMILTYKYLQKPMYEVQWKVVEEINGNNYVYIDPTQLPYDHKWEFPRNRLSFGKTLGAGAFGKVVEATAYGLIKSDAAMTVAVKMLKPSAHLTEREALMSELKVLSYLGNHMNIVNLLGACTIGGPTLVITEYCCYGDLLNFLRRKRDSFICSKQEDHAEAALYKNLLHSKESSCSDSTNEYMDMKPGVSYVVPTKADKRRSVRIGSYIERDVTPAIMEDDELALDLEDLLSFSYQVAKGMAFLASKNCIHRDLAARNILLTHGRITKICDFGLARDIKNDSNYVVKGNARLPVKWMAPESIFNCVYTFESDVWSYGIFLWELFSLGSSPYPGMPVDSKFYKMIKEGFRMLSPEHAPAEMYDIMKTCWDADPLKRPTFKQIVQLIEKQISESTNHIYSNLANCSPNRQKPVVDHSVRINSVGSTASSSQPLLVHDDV

Row | Kd [1] [nM] | Kd [2] [nM] | Kd [3] [nM] | IC50 [4] [nM] | Kinase specificty: S(10)-386 panel [5] | Structure (SMILES)
1 | 1 to 10 | ≤ 10 | 1 to 10 | 10 to 100 | A (A≦0.1) | CC1(c2cc(NC(=O)Nc3ccc(-c4ccc(N)nc4)cc3)no2)COC1.CS(=O)(=O)O [Example 98, 5-(4-(3-(5-(3-methyloxetan-3-yl)isoxazol-3-yl)ureido)phenyl)pyridin-2-aminium methanesulfonate]
2 | 1 to 10 | ≤ 10 | ≤ 1 | 1 to 10 | A (A≦0.1) | CC1(c2cc(NC(=O)Cc3ccc(-c4ccc(N)nc4)cc3)no2)COC1.CS(=O)(=O)O [Example 99, 5-(4-(2-((5-(3-methyloxetan-3-yl)isoxazol-3-yl)amino)-2-oxoethyl)phenyl)pyridin-2-aminium methanesulfonate]
3 | ≤ 1 | ≤ 10 | ≤ 1 | 1 to 10 | A (A≦0.1) | CC1(c2cc(NC(=O)Cc3ccc(-c4ccc(N)nc4)cc3)no2)CC1.CS(=O)(=O)O [Example 100, 5-(4-(2-(5-(1-methylcyclopropyl)isoxazol-3-ylamino)-2-oxoethyl)phenyl)pyridin-2-aminium methanesulfonate]
4 | ≤ 1 | ≤ 10 | ≤ 1 | 1 to 10 | A (A≦0.1) | CC(C)(F)c1cc(NC(=O)Cc2ccc(-c3ccc(N)nc3)cc2)on1.CS(=O)(=O)O [Example 101, 5-(4-(2-(3-(2-fluoropropan-2-yl)isoxazol-5-ylamino)-2-oxoethyl)phenyl)pyridin-2-aminium methanesulfonate]
5 | 1 to 10 | ≤ 10 | ≤ 1 | ≤ 1 | B (0.1<B≦0.2 nM) | CC(=O)O.CC1(c2cc(NC(=O)Cc3ccc(-c4ccc(N)nc4)cc3)no2)CC1(F)F (stereo not drawn) [Example 102, 5-(4-(2-((5-(2,2-difluoro-1-methylcyclopropyl)isoxazol-3-yl)amino)-2-oxoethyl)phenyl)pyridin-2-aminium acetate]
6 | ≤ 1 | ≤ 10 | ≤ 1 | ≤ 1 | A (A≦0.1) | CC(=O)O.Nc1ccc(-c2ccc(CC(=O)Nc3cc(C4(CF)CC4)on3)cc2)cn1 [Example 103, 5-(4-(2-((5-(1-(fluoromethyl)cyclopropyl)isoxazol-3-yl)amino)-2-oxoethyl)phenyl)pyridin-2-aminium acetate]
7 | ≤ 1 | ≤ 10 | ≤ 1 | 10 to 100 | A (A≦0.1) | CC1(c2cc(NC(=O)Nc3ccc(-c4ccc(N)nc4)cn3)no2)CC1.CS(=O)(=O)O [Example 104, 6′-(3-(5-(1-methylcyclopropyl)isoxazol-3-yl)ureido)-3,3′-bipyridin-6-aminium methanesulfonate]
8 | ≤ 1 | ≤ 10 | ≤ 1 | 1 to 10 | B (0.1<B≦0.2 nM) | CC(C)(C)c1cc(NC(=O)Cc2ccc(-c3ccc(NCCN4CCOCC4)nc3)cc2)no1.CS(=O)(=O)O [Example 105, 5-(4-(2-(5-tert-butylisoxazol-3-ylamino)-2-oxoethyl)phenyl)-N-(2-morpholinoethyl)pyridin-2-aminium methanesulfonate]
9 | ≤ 1 | ≤ 10 | ≤ 1 | 1 to 10 | A (A≦0.1) | CC1(c2cc(NC(=O)Nc3ccc(-c4ccc(N)nc4)cc3)no2)CC1.CS(=O)(=O)O [Example 106, 5-(4-(3-(5-(1-methylcyclopropyl)isoxazol-3-yl)ureido)phenyl)pyridin-2-aminium methanesulfonate]
10 | 1 to 10 | ≤ 10 | ≤ 1 | 1 to 10 | A (A≦0.1) | CC(C)(C)c1cc(NC(=O)Nc2ccc(-c3ccc(NCCN4CCC(F)(F)CC4)nc3)cc2)no1.CS(=O)(=O)O [Example 107, 1-(2-((5-(4-(3-(5-(tert-butyl)isoxazol-3-yl)ureido)phenyl)pyridin-2-yl)amino)ethyl)-4,4-difluoropiperidin-1-ium methanesulfonate]
11 | 1 to 10 | ≤ 10 | ≤ 1 | 1 to 10 | A (A≦0.1) | CC(C)(C)c1cc(NC(=O)Cc2ccc(-c3ccc(NCCN4CCC(F)(F)CC4)nc3)cc2)no1.CS(=O)(=O)O [Example 108, 1-(2-(5-(4-(2-(5-tert-butylisoxazol-3-ylamino)-2-oxoethyl)phenyl)pyridin-2-ylamino)ethyl)-4,4-difluoropiperidinium methanesulfonate]
12 | 1 to 10 | ≤ 10 | ≤ 1 | ≤ 1 | B (0.1<B≦0.2 nM) | CC(C)(c1cc(NC(=O)Cc2ccc(-c3ccc(NCCN4CCOCC4)nc3)cc2)no1)C(F)(F)F.CS(=O)(=O)O [Example 109, 4-(2-(5-(4-(2-oxo-2-(5-(1,1,1-trifluoro-2-methylpropan-2-yl)isoxazol-3-ylamino)ethyl)phenyl)pyridin-2-ylamino)ethyl)morpholin-4-ium methanesulfonate]
13 | 1 to 10 | ≤ 10 | ≤ 1 | ≤ 1 | B (0.1<B≦0.2 nM) | CNc1ccc(-c2ccc(CC(=O)Nc3cc(C(C)(C)C)on3)cc2)cn1.CS(=O)(=O)O [Example 110, 5-(4-(2-(5-tert-butylisoxazol-3-ylamino)-2-oxoethyl)phenyl)-N-methylpyridin-2-aminium methanesulfonate]
14 | ≤ 1 | ≤ 10 | ≤ 1 | ≤ 1 | A (A≦0.1) | CCNc1ccc(-c2ccc(CC(=O)Nc3cc(C(C)(C)C)on3)cc2)cn1.CS(=O)(=O)O [Example 111, 5-(4-(2-(5-tert-butylisoxazol-3-ylamino)-2-oxoethyl)phenyl)-N-ethylpyridin-2-aminium methanesulfonate]
15 | 1 to 10 | ≤ 10 | ≤ 1 | 1 to 10 | A (A≦0.1) | CC1(c2cc(NC(=O)Nc3ccc(-c4ccc(N)nc4)cc3)no2)CC1(F)F.CS(=O)(=O)O (stereo not drawn) [Example 112, 5-(4-(3-(5-(2,2-difluoro-1-methylcyclopropyl)isoxazol-3-yl)ureido)phenyl)pyridin-2-aminium methanesulfonate]
16 | 1 to 10 | ≤ 10 | ≤ 1 | ≤ 1 | B (0.1<B≦0.2 nM) | CS(=O)(=O)O.Cc1nc(-c2ccc(CC(=O)Nc3cc(C(C)(C)C)on3)cc2)cnc1N [Example 113, 5-(4-(2-(5-tert-butylisoxazol-3-ylamino)-2-oxoethyl)phenyl)-3-methylpyrazin-2-aminium methanesulfonate]
17 | 1 to 10 | ≤ 10 | 1 to 10 | ≤ 1 | B (0.1<B≦0.2 nM) | CC(C)(C)c1cc(NC(=O)Cc2ccc(-c3cnc(N)c(Cl)c3)cc2)no1.CS(=O)(=O)O [Example 115, 5-(4-(2-(5-tert-butylisoxazol-3-ylamino)-2-oxoethyl)phenyl)-3-chloropyridin-2-aminium methanesulfonate]
18 | 1 to 10 | ≤ 10 | ≤ 1 | ≤ 1 | B (0.1<B≦0.2 nM) | CC(C)(C)c1cc(NC(=O)Cc2ccc(-c3cnc(N)c(C(F)(F)F)c3)cc2)no1.CS(=O)(=O)O [Example 116, 5-(4-(2-(5-tert-butylisoxazol-3-ylamino)-2-oxoethyl)phenyl)-3-(trifluoromethyl)pyridin-2-aminium methanesulfonate]
